Results as given in US7790894B2, “Mycobacterial inhibitors” (Janssen Pharmaceutica NV, priority 2004, dated 2010).

Key:
M. Smegmatis ATCC607 = assay: In-vitro anti-bacterial activity against strain M. smegmatis ATCC607 (growth inhibition, Alamar Blue fluorescence); type: cell-based; details: strain ATCC607, 48 hours at 37° C.; for IC50: Mycolicibacterium smegmatis, ATCC607, 48 h, read-out: M. smegmatis pIC50 (converted)
Procedure: D.2. In-Vitro Method for Testing Compounds for Anti-Bacterial Activity Against Strain M. Smegmatis ATCC607 Flat-bottom, sterile 96-well plastic microtiter plates were filled with 180 μl of sterile deionized water, supplemented with 0.25% BSA. […] Serial five-fold dilutions (45 μl in 180 μl) were made directly in the microtiter plates from column 2 to 11 using a customised robot system (Zymark Corp. Hopkinton, Mass.). Pipette tips were changed after every 3 dilutions to minimize pipetting errors with high hydrophobic compounds. […] Approximately 250 CFU per well of bacteria inoculum, in a volume of 100 μl in 2.8× Mueller-Hinton broth medium, was added to the rows […]. The same volume of broth medium without inoculum was added to column 12 in row A to H. The cultures were incubated at 37° C. for 48 hours in a humidified 5% CO2 atmosphere (incubator with open air valve and continuous ventilation). At the end of incubation, two days after inoculation, the bacterial growth was quantitated fluorometrically. Therefore Alamar Blue (10×) was added to all wells in a volume of 20 μl and plates were incubated for another 2 hours at […] The fluorescence was read in a computer-controlled fluorometer (Cytofluor, Biosearch) at an excitation wavelength of 530 nm and an emission wavelength of 590 nm (gain 30). The % growth inhibition achieved by the compounds was calculated according to standard methods. The pIC50 was defined as the 50% inhibitory concentration for bacterial growth.

[1] = system: Mycobacterium tuberculosis (strain H37RV); assay: In-vitro testing against M. tuberculosis (growth inhibition, Resazurin fluorescence); type: cell-based; details: 168 h, 7 days at 37° C., bacterial growth, read-out: M. tuberculosis pIC50 (converted)

Compound	melting point [°C]	IC50 (M. Smegmatis ATCC607) [nM]	IC50 [1] [nM]	M. smegmatis pIC50 (M. Smegmatis ATCC607)
CN(C)CC[C@](O)(c1cccc2ccccc12)C(Cc1ccccc1)c1ccc2cc(Br)ccc2n1 (stereo partly shown) [Compound 2]	143	316		
CN(C)CC[C@@](O)(c1cccc(F)c1)C(c1ccccc1)c1ccc2cc(Br)ccc2n1 (stereo partly shown) [Compound 6]	134	12600		
CCc1cc2ccc([C@H](c3ccccc3)[C@@](O)(CCN(C)C)c3cccc4ccccc34)cc2nc1Cl [Compound 8]		1580		
CCc1cc2cc(C(c3ccccc3)C(O)(CCN(C)C)c3cc(F)cc(F)c3)ccc2nc1Cl (single isomer, unassigned) [Compound 15]		398	10000	
CN(C)CC[C@@](O)(c1cccc2ccccc12)C(Cc1ccccc1)c1ccc2cc(Br)ccc2n1 (stereo partly shown) [Compound 3]	69	2000		
CCc1cc2ccc([C@H](c3ccccc3)[C@@](O)(CCN(C)C)c3cc(F)cc(F)c3)cc2nc1Cl [Compound 10]		1260	7940	
CCc1cc2ccc([C@H](c3ccccc3)[C@@](O)(CCN(C)C)c3cc(F)cc(F)c3)cc2nc1Cl [Compound 9]				5.8
CN(C)CC[C@](O)(c1cc(F)cc(F)c1)[C@@H](c1ccccc1)c1cc(Br)cc2c(-c3ccccc3)cc(Cl)nc12 [Compound 11]	220	2000		
CN(C)CC[C@](O)(c1cccc(F)c1)C(Cc1ccccc1)c1ccc2cc(Br)ccc2n1 (stereo partly shown) [Compound 1]	136	631		
